Common to all, as to type: in vivo
One assay has as its system wax moth. The assay can be described thus: topical application to wax moth, fifth larval stage, maturation inhibition. An excerpt: (§1) The compounds were applied in acetone solution at concentrations of 10 percent, 1 percent and 0.5 percent. One microliter of the acetone solution was applied to each test specimen. Ten test specimens were employed for each insect at each concentration and compared to ten acetone controls and ten zero controls. Approximately eight to ten days were required before results could be ascertained.
(§2) The insect species used in the test were Tenebrio molitor pupae; milkweed bug, fourth nymphal stage; wax moth, fifth larval stage; and Mexican bean beetle, fourth larval stage. At the completion of the test, each specimen was examined for the degree of juvenile and adult characteristics. The milkweed bug, wax moth, and Mexican bean beetle were assigned a numerical rating of 0 to 3 with 0 indicating no effect and 3 indicating the maximum effect or least adult development. Because of differences in morphology the Tenebrio rating scale was 0 to 4. In all cases a rating of 2 or higher means that the insect is incapable of reproduction. The number of specimens in each rating classification are given. In any test were the total of specimens reported is less than 10, those unreported died in some metamorphic stage. Such deaths indicate control, since the dead insects are not capable of reproducing.

The test system of another assay is Mexican bean beetle. Description: topical application to Mexican bean beetle, fourth larval stage, maturation inhibition.
Excerpt: as §1, §2

For the next assay, the system named is milkweed bug. The assay can be described thus: topical application to milkweed bug, fourth nymphal stage, maturation inhibition. The note with it: rating scale 0-3.
Excerpt: as §1, §2

A further assay has as its system Tenebrio molitor pupae. Description: topical application to Tenebrio molitor pupae, maturation inhibition.
Excerpt: as §1, §2

Where [1] appears, read: 10% in acetone, 1 microliter topical, rating scale 0 (no effect) to 3 (maximum).
The mark [2] stands for this setting: 10% in acetone, 1 microliter topical, rating scale 0 (no effect) to 4 (maximum).

Regarding `CC(C)=CCC/C(C)=C/CCc1ccccc1` [2,6-DIMETHYL-9-PHENYL-2,6-NONADIENE], the “number of specimens in rating 0” value in the assay on wax moth (0.5%, rating scale 0-3) is 10 specimens; in the assay on wax moth (1%, rating scale 0-3), 10 specimens; in the assay on wax moth (setting [1]) it was 10 specimens; with milkweed bug (0.5%), 8 specimens; in the assay on milkweed bug (1%) it was 2 specimens; in the assay on Tenebrio molitor pupae (0.5%, rating scale 0-4) it was 7 specimens. Besides, in the assay with Tenebrio molitor pupae (1%, rating scale 0-4), the “number of specimens in rating 0” value was 6 specimens. For the same compound, the “number of specimens in rating 3” value in the assay with Mexican bean beetle (0.5%, rating scale 0-3) is recorded as 10 specimens; in the assay on Mexican bean beetle (1%, rating scale 0-3) it was 10 specimens; with Mexican bean beetle (10%, rating scale 0-3), 10 specimens; with milkweed bug (10%) it was 9 specimens; in the assay on Tenebrio molitor pupae (10%, rating scale 0-4), 4 specimens. Moreover, the “number of specimens in rating 1” value in the assay on milkweed bug (0.5%) is listed as 1 specimens; in the assay on milkweed bug (1%) it was 1 specimens; with Tenebrio molitor pupae (0.5%, rating scale 0-4), 3 specimens; with Tenebrio molitor pupae (1%, rating scale 0-4) it was 4 specimens. The “number of specimens in rating 2” value in the assay with milkweed bug (0.5%) was 1 specimens; in the assay on Tenebrio molitor pupae (10%, rating scale 0-4), 1 specimens. In addition, the “number of specimens in rating 4” value with Tenebrio molitor pupae (10%, rating scale 0-4) stood at 5 specimens.

Take `CCC1(C)OC1CCC(C)=CCCc1ccc2c(c1)OCO2` (centres unmarked) [3,4-EPOXY-3,7-DIMETHYL-10-(3,4-METHYLENEDIOXYPHENYL)-7-DECENE]: the “number of specimens in rating 2” value is 1 specimens in the assay with wax moth (0.5%, rating scale 0-3) and 2 specimens in the assay on milkweed bug (0.5%). For the same compound, the “number of specimens in rating 3” value amounted to 9 specimens in the assay with wax moth (0.5%, rating scale 0-3); 10 specimens in the assay with wax moth (1%, rating scale 0-3); 10 specimens in the assay with Mexican bean beetle (0.5%, rating scale 0-3); 10 specimens in the assay on Mexican bean beetle (1%, rating scale 0-3); 8 specimens in the assay with milkweed bug (1%). The “number of specimens in rating 0” value in the assay with milkweed bug (0.5%) and with milkweed bug (1%) was 2 specimens in each case. Further, the “number of specimens in rating 1” value in the assay on milkweed bug (0.5%) turned out to be 5 specimens. For the same compound, the “number of specimens in rating 4” value in the assay with Tenebrio molitor pupae (0.5%, rating scale 0-4) was found to be 10 specimens; in the assay on Tenebrio molitor pupae (1%, rating scale 0-4), 10 specimens; in the assay on Tenebrio molitor pupae (10%, rating scale 0-4), 10 specimens.

For the compound `CCC(C)=CCCC(=CCCc1ccc2c(c1)OCO2)CC` [3-METHYL-7-ETHYL-10-(3,4-METHYLENEDIOXYPHENYL)-3,7-DECADIENE], the “number of specimens in rating 0” value was 9 specimens in the assay with wax moth (0.5%, rating scale 0-3); 10 specimens in the assay with wax moth (1%, rating scale 0-3); 10 specimens in the assay with wax moth (setting [1]); 9 specimens in the assay on milkweed bug (0.5%); 7 specimens in the assay with milkweed bug (1%). Besides, the “number of specimens in rating 2” value with Mexican bean beetle (0.5%, rating scale 0-3) is on record as 1 specimens; in the assay with milkweed bug (1%), 2 specimens. Moreover, the “number of specimens in rating 3” value in the assay on Mexican bean beetle (0.5%, rating scale 0-3) was determined as 9 specimens; in the assay with Mexican bean beetle (1%, rating scale 0-3) it was 10 specimens; in the assay on Mexican bean beetle (10%, rating scale 0-3), 10 specimens; with milkweed bug (1%), 1 specimens; with milkweed bug (10%), 10 specimens; in the assay on Tenebrio molitor pupae (0.5%, rating scale 0-4), 2 specimens. Also, the “number of specimens in rating 3” value with Tenebrio molitor pupae (1%, rating scale 0-4) was found to be 1 specimens. Also, the “number of specimens in rating 1” value with milkweed bug (0.5%) was 1 specimens. The “number of specimens in rating 4” value in the assay on Tenebrio molitor pupae (0.5%, rating scale 0-4) was 8 specimens; in the assay on Tenebrio molitor pupae (1%, rating scale 0-4), 9 specimens; with Tenebrio molitor pupae (10%, rating scale 0-4), 10 specimens.

Turning to `CC(C)=CCCC(C)=CCCc1cc2c(cc1Cl)OCO2` [9-(2-CHLORO-4,5-METHYLENEDIOXYPHENYL)-2,6-DIMETHYL-2,6-NONADIENE], the “number of specimens in rating 0” value in the assay on wax moth (0.5%, rating scale 0-3) is given as 10 specimens; in the assay on wax moth (1%, rating scale 0-3), 10 specimens; in the assay on wax moth (setting [1]), 8 specimens; with Mexican bean beetle (0.5%, rating scale 0-3), 10 specimens; in the assay on Mexican bean beetle (1%, rating scale 0-3) it was 9 specimens; in the assay on Mexican bean beetle (setting [1]), 7 specimens. Besides, the “number of specimens in rating 0” value is recorded as 9 specimens with milkweed bug (0.5%); 3 specimens in the assay on milkweed bug (1%); 10 specimens with Tenebrio molitor pupae (0.5%, rating scale 0-4); 10 specimens in the assay on Tenebrio molitor pupae (1%, rating scale 0-4); 10 specimens with Tenebrio molitor pupae (setting [2]). Further, the “number of specimens in rating 2” value in the assay with wax moth (10%, rating scale 0-3) is listed as 1 specimens; in the assay on Mexican bean beetle (1%, rating scale 0-3), 1 specimens. Moreover, the “number of specimens in rating 3” value in the assay on Mexican bean beetle (1%, rating scale 0-3) turned out to be 10 specimens; in the assay on Mexican bean beetle (10%, rating scale 0-3), 10 specimens; in the assay with milkweed bug (1%), 6 specimens; in the assay on milkweed bug (10%), 10 specimens. The “number of specimens in rating 1” value in the assay with Mexican bean beetle (10%, rating scale 0-3) came out at 3 specimens; in the assay with milkweed bug (0.5%), 1 specimens; with milkweed bug (1%) it was 1 specimens.

For `CCOc1cccc(CCC=C(C)CCC=C(C)C)c1` [9-(3-ethoxyphenyl)-2,6-dimethyl-2,6nonadiene], the “number of specimens in rating 0” value in the assay on wax moth (0.5%, rating scale 0-3) is 10 specimens; in the assay with wax moth (1%, rating scale 0-3) it was 10 specimens; with wax moth (setting [1]) it was 10 specimens; in the assay on Mexican bean beetle (0.5%, rating scale 0-3), 10 specimens; with Mexican bean beetle (1%, rating scale 0-3) it was 8 specimens; with Mexican bean beetle (setting [1]), 1 specimens. Moreover, the “number of specimens in rating 0” value is given as 3 specimens with milkweed bug (0.5%); 10 specimens in the assay with Tenebrio molitor pupae (0.5%, rating scale 0-4); 8 specimens in the assay on Tenebrio molitor pupae (1%, rating scale 0-4). For the same compound, the “number of specimens in rating 1” value in the assay on Mexican bean beetle (1%, rating scale 0-3) is reported as 2 specimens; with milkweed bug (0.5%) it was 1 specimens; in the assay on Tenebrio molitor pupae (1%, rating scale 0-4), 2 specimens; with Tenebrio molitor pupae (10%, rating scale 0-4), 1 specimens. Further, the “number of specimens in rating 2” value came out at 2 specimens in the assay with Mexican bean beetle (10%, rating scale 0-3); 2 specimens in the assay on milkweed bug (0.5%); 7 specimens in the assay on milkweed bug (1%). The “number of specimens in rating 3” value in the assay on Mexican bean beetle (10%, rating scale 0-3) was found to be 7 specimens; with milkweed bug (1%), 2 specimens; in the assay with milkweed bug (10%), 7 specimens; in the assay with Tenebrio molitor pupae (10%, rating scale 0-4) it was 5 specimens. In addition, the “number of specimens in rating 4” value with Tenebrio molitor pupae (10%, rating scale 0-4) was 4 specimens.

As for `CCOC(=O)c1ccc(CC/C=C(\C)CCC=C(C)C)cc1` [ethyl trans-4-(4,8-dimethyl-3,7-nonadienyl)benzoate], the “number of specimens in rating 0” value in the assay with wax moth (0.5%, rating scale 0-3) is 10 specimens; in the assay with wax moth (1%, rating scale 0-3), 10 specimens; with wax moth (setting [1]), 10 specimens; in the assay with Mexican bean beetle (0.5%, rating scale 0-3), 9 specimens; in the assay on Mexican bean beetle (1%, rating scale 0-3), 10 specimens; with Mexican bean beetle (setting [1]), 8 specimens. The “number of specimens in rating 0” value is listed as 1 specimens in the assay on milkweed bug (0.5%); 9 specimens with Tenebrio molitor pupae (0.5%, rating scale 0-4); 10 specimens in the assay with Tenebrio molitor pupae (1%, rating scale 0-4); 3 specimens in the assay with Tenebrio molitor pupae (setting [2]). For the same compound, the “number of specimens in rating 2” value is on record as 2 specimens with Mexican bean beetle (10%, rating scale 0-3); 3 specimens in the assay with milkweed bug (0.5%); 1 specimens in the assay on Tenebrio molitor pupae (10%, rating scale 0-4). The “number of specimens in rating 3” value is 6 specimens with milkweed bug (0.5%); 10 specimens in the assay with milkweed bug (1%); 10 specimens in the assay with milkweed bug (10%); 1 specimens in the assay on Tenebrio molitor pupae (10%, rating scale 0-4). Further, the “number of specimens in rating 1” value in the assay on Tenebrio molitor pupae (10%, rating scale 0-4) is 5 specimens.

For the compound `CC(C)=CCC/C(C)=C/CCc1cccc(Cl)c1` [trans-2,6-dimethyl-9-(3-chlorophenyl)-2,6-nonadiene], the “number of specimens in rating 0” value stood at 10 specimens in the assay on wax moth (0.5%, rating scale 0-3); 7 specimens with wax moth (1%, rating scale 0-3); 7 specimens with wax moth (setting [1]); 10 specimens with Mexican bean beetle (0.5%, rating scale 0-3); 9 specimens in the assay on Mexican bean beetle (1%, rating scale 0-3); 10 specimens with Tenebrio molitor pupae (0.5%, rating scale 0-4). Also, the “number of specimens in rating 0” value in the assay on Tenebrio molitor pupae (1%, rating scale 0-4) worked out at 10 specimens; in the assay on Tenebrio molitor pupae (setting [2]), 2 specimens. Moreover, the “number of specimens in rating 1” value with wax moth (1%, rating scale 0-3) is reported as 1 specimens; in the assay with wax moth (10%, rating scale 0-3), 3 specimens; in the assay with Tenebrio molitor pupae (10%, rating scale 0-4) it was 1 specimens. Moreover, the “number of specimens in rating 2” value in the assay with wax moth (1%, rating scale 0-3) amounted to 2 specimens; in the assay on Tenebrio molitor pupae (10%, rating scale 0-4) it was 1 specimens. The “number of specimens in rating 3” value with Mexican bean beetle (1%, rating scale 0-3) is on record as 1 specimens; in the assay on Mexican bean beetle (10%, rating scale 0-3), 10 specimens; in the assay with milkweed bug (0.5%) it was 10 specimens; in the assay with milkweed bug (1%), 10 specimens; in the assay with milkweed bug (10%), 10 specimens; with Tenebrio molitor pupae (10%, rating scale 0-4) it was 6 specimens.

These data come from US3962282A, “Juvenile hormone mimics” (priority 1974, dated 1976).
